In the kinase profiling compilation of Christmann-Franck et al. (2016):

Columns and labels:
Test in all cases: KINOMEscan competition binding
Settings in all cases: compound 0.1 µM
NEK7 (human) = NEK7 (human) (UniProt Q8TDX7)
MAPK9 (human) = MAPK9 (human) (UniProt P45984)
[1] = tested on: KIT (human), P10721 [V559D/T670I]
CLK2 (human) = CLK2 (human) (UniProt P49760)
TNK1 (human) = TNK1 (human) (UniProt Q13470)
PRKACB (human) = PRKACB (human) (UniProt P22694)
ITK (human) = ITK (human) (UniProt Q08881)
HUNK (human) = HUNK (human) (UniProt P57058)
ACVR1B (human) = ACVR1B (human) (UniProt P36896)
MAP2K7 (human) = MAP2K7 (human) (UniProt O14733)
MERTK (human) = MERTK (human) (UniProt Q12866)
RPS6KB1 (human) = RPS6KB1 (human) (UniProt P23443)
Chain of RPS6KB1 (human) (P23443 whole entry, looked up): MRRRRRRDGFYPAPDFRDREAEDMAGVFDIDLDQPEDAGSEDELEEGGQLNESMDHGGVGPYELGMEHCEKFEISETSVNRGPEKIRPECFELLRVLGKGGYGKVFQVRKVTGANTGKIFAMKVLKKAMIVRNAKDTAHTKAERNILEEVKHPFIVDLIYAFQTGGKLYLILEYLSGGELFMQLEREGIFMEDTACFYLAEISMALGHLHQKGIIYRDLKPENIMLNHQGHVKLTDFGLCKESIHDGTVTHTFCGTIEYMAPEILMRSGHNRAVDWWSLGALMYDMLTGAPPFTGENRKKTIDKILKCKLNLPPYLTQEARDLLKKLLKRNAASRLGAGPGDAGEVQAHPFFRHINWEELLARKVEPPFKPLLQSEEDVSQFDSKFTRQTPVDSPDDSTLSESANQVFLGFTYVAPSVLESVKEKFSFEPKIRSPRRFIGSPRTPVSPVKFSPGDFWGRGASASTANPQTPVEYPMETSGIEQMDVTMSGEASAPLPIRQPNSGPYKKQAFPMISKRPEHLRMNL

RIPK2 (human) = RIPK2 (human) (UniProt O43353)
CDC42BPB (human) = CDC42BPB (human) (UniProt Q9Y5S2)
MAP3K12 (human) = MAP3K12 (human) (UniProt Q12852)
EPHA5 (human) = EPHA5 (human) (UniProt P54756)
IGF1R (human) = IGF1R (human) (UniProt P08069)
[2] = tested on: LRRK2 (human), Q5S007 [G2019S]
PKMYT1 (human) = PKMYT1 (human) (UniProt Q99640)
MAP4K1 (human) = MAP4K1 (human) (UniProt Q92918)
[3] = tested on: MET (human), P08581 [Y1235D]
PIK3CA (human) = PIK3CA (human) (UniProt P42336)
PDPK1 (human) = PDPK1 (human) (UniProt O15530)
IRAK3 (human) = IRAK3 (human) (UniProt Q9Y616)
Chain of IRAK3 (human) (Q9Y616 whole entry, looked up): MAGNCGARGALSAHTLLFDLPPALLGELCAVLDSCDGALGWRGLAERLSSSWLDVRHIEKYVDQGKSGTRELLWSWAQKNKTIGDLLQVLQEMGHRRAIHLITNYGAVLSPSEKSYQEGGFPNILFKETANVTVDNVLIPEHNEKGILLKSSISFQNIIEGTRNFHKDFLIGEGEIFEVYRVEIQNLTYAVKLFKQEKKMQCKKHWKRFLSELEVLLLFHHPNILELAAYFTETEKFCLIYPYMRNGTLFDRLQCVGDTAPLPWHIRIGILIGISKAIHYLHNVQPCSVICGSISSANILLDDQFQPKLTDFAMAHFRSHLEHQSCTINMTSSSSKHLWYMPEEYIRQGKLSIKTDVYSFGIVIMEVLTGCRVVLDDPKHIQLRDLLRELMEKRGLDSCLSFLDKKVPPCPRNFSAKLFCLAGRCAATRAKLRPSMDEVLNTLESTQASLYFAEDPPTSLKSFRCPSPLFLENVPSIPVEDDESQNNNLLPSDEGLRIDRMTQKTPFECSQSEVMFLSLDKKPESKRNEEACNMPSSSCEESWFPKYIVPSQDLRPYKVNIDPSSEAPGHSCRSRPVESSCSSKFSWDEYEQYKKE

[4] = tested on: KIT (human), P10721 [D816V]
CDKL1 (human) = CDKL1 (human) (UniProt Q00532)
Chain of CDKL1 (human) (Q00532 whole entry, looked up): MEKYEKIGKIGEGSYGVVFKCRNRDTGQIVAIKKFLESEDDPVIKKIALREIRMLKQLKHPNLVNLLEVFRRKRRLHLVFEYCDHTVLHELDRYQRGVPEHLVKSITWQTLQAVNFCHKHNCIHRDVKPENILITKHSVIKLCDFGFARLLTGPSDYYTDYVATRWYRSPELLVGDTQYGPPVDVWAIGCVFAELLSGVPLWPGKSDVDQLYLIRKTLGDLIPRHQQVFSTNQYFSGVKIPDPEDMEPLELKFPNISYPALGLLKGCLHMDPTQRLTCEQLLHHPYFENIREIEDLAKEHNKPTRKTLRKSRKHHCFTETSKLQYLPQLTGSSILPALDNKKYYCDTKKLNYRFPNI

CSNK1A1 (human) = CSNK1A1 (human) (UniProt P48729)
ERBB3 (human) = ERBB3 (human) (UniProt P21860)
Chain of ERBB3 (human) (P21860 whole entry, looked up): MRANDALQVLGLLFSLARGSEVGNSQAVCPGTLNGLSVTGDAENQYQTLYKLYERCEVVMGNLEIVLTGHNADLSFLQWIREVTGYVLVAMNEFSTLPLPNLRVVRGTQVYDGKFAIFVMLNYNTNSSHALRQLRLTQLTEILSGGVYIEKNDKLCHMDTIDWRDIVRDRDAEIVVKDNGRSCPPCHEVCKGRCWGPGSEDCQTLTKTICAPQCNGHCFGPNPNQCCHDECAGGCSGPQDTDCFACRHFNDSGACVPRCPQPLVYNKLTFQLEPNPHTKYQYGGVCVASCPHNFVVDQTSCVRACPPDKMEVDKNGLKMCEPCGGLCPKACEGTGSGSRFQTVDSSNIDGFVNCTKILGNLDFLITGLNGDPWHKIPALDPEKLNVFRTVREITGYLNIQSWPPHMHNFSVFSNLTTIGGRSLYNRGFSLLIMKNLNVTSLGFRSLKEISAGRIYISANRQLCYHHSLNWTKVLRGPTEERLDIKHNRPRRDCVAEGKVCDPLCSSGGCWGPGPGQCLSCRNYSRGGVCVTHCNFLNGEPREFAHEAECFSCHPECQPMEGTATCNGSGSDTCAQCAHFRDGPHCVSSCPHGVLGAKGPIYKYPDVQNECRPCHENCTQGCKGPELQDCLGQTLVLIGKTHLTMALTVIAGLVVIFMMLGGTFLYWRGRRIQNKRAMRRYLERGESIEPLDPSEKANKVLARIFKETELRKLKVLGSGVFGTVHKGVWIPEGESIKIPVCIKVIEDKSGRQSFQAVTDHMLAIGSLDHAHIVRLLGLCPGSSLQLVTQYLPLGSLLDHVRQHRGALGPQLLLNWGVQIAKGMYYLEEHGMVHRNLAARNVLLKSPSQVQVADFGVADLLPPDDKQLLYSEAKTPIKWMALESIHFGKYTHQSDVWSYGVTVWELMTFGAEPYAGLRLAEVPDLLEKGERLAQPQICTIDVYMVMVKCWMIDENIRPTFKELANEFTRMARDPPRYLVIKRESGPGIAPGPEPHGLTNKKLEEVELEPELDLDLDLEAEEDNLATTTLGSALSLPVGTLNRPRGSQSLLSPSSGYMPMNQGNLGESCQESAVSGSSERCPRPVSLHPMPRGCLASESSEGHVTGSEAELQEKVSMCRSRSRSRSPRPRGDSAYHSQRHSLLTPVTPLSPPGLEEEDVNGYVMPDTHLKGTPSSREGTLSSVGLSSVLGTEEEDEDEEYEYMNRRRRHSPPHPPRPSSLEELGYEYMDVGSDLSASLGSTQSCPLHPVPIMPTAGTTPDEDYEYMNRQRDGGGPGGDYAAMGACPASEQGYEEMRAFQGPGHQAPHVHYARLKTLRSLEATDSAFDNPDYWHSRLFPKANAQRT

CDC2L2 (human) = CDC2L2 (human) (UniProt Q9UQ88)
WEE1 (human) = WEE1 (human) (UniProt P30291)
LATS1 (human) = LATS1 (human) (UniProt O95835)
MAPK1 (human) = MAPK1 (human) (UniProt P28482)
Chain of MAPK1 (human) (P28482 whole entry, looked up): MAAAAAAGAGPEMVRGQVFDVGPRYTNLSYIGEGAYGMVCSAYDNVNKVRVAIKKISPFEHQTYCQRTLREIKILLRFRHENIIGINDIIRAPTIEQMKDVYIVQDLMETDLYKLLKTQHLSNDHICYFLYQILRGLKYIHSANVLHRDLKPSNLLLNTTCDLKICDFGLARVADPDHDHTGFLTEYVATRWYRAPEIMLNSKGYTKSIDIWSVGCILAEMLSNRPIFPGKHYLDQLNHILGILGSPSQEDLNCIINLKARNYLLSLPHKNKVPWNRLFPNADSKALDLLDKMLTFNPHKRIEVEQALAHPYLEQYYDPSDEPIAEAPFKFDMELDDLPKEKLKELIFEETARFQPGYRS

PRKD2 (human) = PRKD2 (human) (UniProt Q9BZL6)
AKT1 (human) = AKT1 (human) (UniProt P31749)
CLK1 (human) = CLK1 (human) (UniProt P49759)
[5] = tested on: EGFR (human), P00533 [L861Q]
PAK3 (human) = PAK3 (human) (UniProt O75914)
CAMK2D (human) = CAMK2D (human) (UniProt Q13557)
BMPR2 (human) = BMPR2 (human) (UniProt Q13873)
Chain of BMPR2 (human) (Q13873 whole entry, looked up): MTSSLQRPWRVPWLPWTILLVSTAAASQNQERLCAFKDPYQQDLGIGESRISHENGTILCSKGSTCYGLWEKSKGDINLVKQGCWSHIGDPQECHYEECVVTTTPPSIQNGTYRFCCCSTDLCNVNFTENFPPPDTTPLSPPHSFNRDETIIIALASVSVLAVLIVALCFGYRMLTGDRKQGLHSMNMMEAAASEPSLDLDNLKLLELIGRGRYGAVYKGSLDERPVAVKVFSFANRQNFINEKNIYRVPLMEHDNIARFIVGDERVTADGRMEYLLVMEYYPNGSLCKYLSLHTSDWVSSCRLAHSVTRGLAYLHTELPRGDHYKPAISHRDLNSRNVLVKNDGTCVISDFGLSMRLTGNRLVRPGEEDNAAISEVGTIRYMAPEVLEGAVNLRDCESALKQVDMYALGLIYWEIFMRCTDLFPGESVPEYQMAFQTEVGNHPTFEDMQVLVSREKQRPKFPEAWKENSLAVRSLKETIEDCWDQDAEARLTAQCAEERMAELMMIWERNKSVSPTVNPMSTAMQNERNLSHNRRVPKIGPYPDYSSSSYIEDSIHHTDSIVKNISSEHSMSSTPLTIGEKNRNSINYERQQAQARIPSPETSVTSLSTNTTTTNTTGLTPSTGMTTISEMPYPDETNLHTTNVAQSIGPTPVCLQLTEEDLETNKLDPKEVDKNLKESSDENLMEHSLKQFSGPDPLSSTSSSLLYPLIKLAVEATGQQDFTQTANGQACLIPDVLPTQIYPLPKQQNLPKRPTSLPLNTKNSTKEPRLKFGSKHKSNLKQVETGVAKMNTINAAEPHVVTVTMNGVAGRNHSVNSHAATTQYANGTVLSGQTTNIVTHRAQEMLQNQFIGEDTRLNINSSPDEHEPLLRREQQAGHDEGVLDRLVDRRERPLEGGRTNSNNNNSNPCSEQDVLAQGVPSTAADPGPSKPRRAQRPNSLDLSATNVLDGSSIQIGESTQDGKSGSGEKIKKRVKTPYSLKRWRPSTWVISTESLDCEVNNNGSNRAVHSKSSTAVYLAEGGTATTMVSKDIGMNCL

CDK5 (human) = CDK5 (human) (UniProt Q00535)
Chain of CDK5 (human) (Q00535 whole entry, looked up): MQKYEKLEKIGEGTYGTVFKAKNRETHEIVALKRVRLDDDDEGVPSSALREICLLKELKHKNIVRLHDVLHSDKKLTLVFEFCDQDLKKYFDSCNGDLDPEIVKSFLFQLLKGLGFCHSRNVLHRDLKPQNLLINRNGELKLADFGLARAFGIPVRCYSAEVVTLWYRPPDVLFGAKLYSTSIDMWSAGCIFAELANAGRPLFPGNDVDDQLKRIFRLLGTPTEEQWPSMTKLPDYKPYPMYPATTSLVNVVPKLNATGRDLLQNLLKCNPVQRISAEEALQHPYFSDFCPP

Chain of NEK7 (human) (Q8TDX7 whole entry, looked up): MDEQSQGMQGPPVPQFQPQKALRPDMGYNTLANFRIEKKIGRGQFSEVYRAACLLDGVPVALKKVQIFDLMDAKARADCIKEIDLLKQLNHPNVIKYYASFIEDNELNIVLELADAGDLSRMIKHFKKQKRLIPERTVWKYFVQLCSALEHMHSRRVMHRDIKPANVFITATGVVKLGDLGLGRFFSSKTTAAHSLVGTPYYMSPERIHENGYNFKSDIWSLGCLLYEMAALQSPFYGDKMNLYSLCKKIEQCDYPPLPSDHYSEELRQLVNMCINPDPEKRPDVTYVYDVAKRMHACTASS

CCc1ccc(C(=O)Nc2cc(CN3CCN(C)CC3)cc(C(F)(F)F)c2)cc1C#Cc1cnc2ccnn2c1
kinase still bound, per cent of control (NEK7 (human)): 95%
kinase still bound, per cent of control (MAPK9 (human)): 100%
kinase still bound, per cent of control [1]: 96%
kinase still bound, per cent of control (CLK2 (human)): 85%
kinase still bound, per cent of control (TNK1 (human)): 52%
kinase still bound, per cent of control (PRKACB (human)): 100%
kinase still bound, per cent of control (ITK (human)): 100%
kinase still bound, per cent of control (HUNK (human)): 100%
kinase still bound, per cent of control (ACVR1B (human)): 100%
kinase still bound, per cent of control (MAP2K7 (human)): 100%
kinase still bound, per cent of control (MERTK (human)): 52%
kinase still bound, per cent of control (RPS6KB1 (human)): 100%
kinase still bound, per cent of control (RIPK2 (human)): 56%
kinase still bound, per cent of control (CDC42BPB (human)): 78%
kinase still bound, per cent of control (MAP3K12 (human)): 81%
kinase still bound, per cent of control (EPHA5 (human)): 100%
kinase still bound, per cent of control (IGF1R (human)): 100%
kinase still bound, per cent of control [2]: 94%
kinase still bound, per cent of control (PKMYT1 (human)): 100%
kinase still bound, per cent of control (MAP4K1 (human)): 100%
kinase still bound, per cent of control [3]: 55%
kinase still bound, per cent of control (PIK3CA (human)): 100%
kinase still bound, per cent of control (PDPK1 (human)): 100%
kinase still bound, per cent of control (IRAK3 (human)): 80%
kinase still bound, per cent of control [4]: 81%
kinase still bound, per cent of control (CDKL1 (human)): 100%
kinase still bound, per cent of control (CSNK1A1 (human)): 100%
kinase still bound, per cent of control (ERBB3 (human)): 86%
kinase still bound, per cent of control (CDC2L2 (human)): 100%
kinase still bound, per cent of control (WEE1 (human)): 100%
kinase still bound, per cent of control (LATS1 (human)): 100%
kinase still bound, per cent of control (MAPK1 (human)): 100%
kinase still bound, per cent of control (PRKD2 (human)): 100%
kinase still bound, per cent of control (AKT1 (human)): 81%
kinase still bound, per cent of control (CLK1 (human)): 71%
kinase still bound, per cent of control [5]: 100%
kinase still bound, per cent of control (PAK3 (human)): 41%
kinase still bound, per cent of control (CAMK2D (human)): 78%
kinase still bound, per cent of control (BMPR2 (human)): 90%
kinase still bound, per cent of control (CDK5 (human)): 100%
